Measurements: patent US20250345329A1, “HETEROARYL DERIVATIVE COMPOUND AND USES THEREOF” (VORONOI, INC., priority 2022, published 2025)

Test system: Ba/F3 expressing EGFR Del19/T790M/C797S mutations
Assay: Inhibitory activity on proliferation of Ba/F3 cell overexpressing EGFR C797S (Cell Titer-Glo)
Type: cell-based
Conditions: Mus musculus, BaF3; 72 hours treatment, cell growth rate vs control; read-out: Ba/F3 (EGFR DTC) GI50
Description: <Experimental Example 2> Evaluation of Inhibitory Activity on Proliferation of Ba/F3 Cell Overexpressing EGFR C797S
The following experiments were performed to evaluate the inhibitory activity of the compounds according to the present invention on the proliferation of Ba/F3 expressing EGFR Del19/T790M/C797S mutations.
Ba/F3 cells were cultured in RPMI-1640 medium supplemented with 10% fetal bovine serum (FBS), and 3000 cells were seeded into each well of a white clear bottom 96 well plate (Corning) 24 hours prior to compound treatment. The compounds were diluted in dimethyl sulfoxide (3-fold dilution, total of 12 concentrations) and injected at 1 μl each so that the final concentration was […] to 5 μM. After 72 hours post treatment with compounds, living cells were reacted in a 37° C., CO2 incubator for […], followed by 10 minutes at room temperature using Cell Titer-Glo luminescent cell-viability reagent (Promega), and the luminescence intensity thereof was measured using a reader (SynergyNeo2, Biotek). The result values were calculated as a cell growth rate (%) compared to the control group. GI50 values were calculated using the GraphPad Prism version 8.4.3 (GraphPad software Inc., San Diego) program.

Row | GI50 | SMILES
1 | 500 to 5000 nM | CO[C@@H]1CCN(c2nccc(Nc3cc(NC(C)C)c(C(=O)N4CC(CS(=O)(=O)C(C)C)C4)cn3)n2)C[C@@H]1F [Example 131, (6-((2-(cis-3-fluoro-4-methoxypiperidin-1-yl)pyrimidin-4-yl)amino)-4-(isopropylamino)pyri-din-3-yl)(3-((isopropylsulfonyl)methyl)azetidin-1-yl)methanone]
2 | < 500 nM | CC(C)Nc1cc(Nc2ccnc(-c3cnn(S(=O)(=O)C4CC4)c3)n2)ncc1C(=O)NC[C@@H](F)C(C)(C)O [Example 132, (R)-6-((2-(1-(cyclopropylsulfonyl)-1H-pyrazol-4-yl)pyrimidin-4-yl)amino)-N-(2-fluoro-3-hydroxy-3-methylbutyl)-4-(isopropylamino)nico-tinamide]
3 | 500 to 5000 nM | CC(C)Nc1cc(Nc2ccnc(-c3ccc(O)c(C=O)c3)n2)ncc1C(=O)N1C[C@H](CS(C)(=O)=O)[C@H]1C [Example 133, 2-hydroxy-5-(4-((4-(isopropylamino)-5-((2R,3S)-2-methyl-3-((methyl-sulfonyl)meth-yl)azetidine-1-carbonyl)pyridin-2-yl)amino)pyrimidin-2-yl)benzaldehyde]
4 | 500 to 5000 nM | CC(=O)c1cc(-c2nccc(Nc3cc(NC(C)C)c(C(=O)N4C[C@H](CS(C)(=O)=O)[C@H]4C)cn3)n2)ccc1O [Example 134, 1-(2-hydroxy-5-(4-((4-(isopropylamino)-5-((2R,3S)-2-methyl-3-((methylsulfonyl)meth-yl)azetidine-1-carbonyl)pyridin-2-yl)amino)pyrimidin-2-yl)phenyl)ethan-1-one]

Target: T1, human EGFR (d746-750/T790M/C797S) (Homo sapiens, UniProt P00533, C797S/DEL746-750/T790M)
T1 construct: human EGFR (d746-750/T790M/C797S) (668-end, SignalChem); purchased SignalChem
T1 sequence (P00533 with tags, fused parts or gaps DEL746-750/T790M/C797S): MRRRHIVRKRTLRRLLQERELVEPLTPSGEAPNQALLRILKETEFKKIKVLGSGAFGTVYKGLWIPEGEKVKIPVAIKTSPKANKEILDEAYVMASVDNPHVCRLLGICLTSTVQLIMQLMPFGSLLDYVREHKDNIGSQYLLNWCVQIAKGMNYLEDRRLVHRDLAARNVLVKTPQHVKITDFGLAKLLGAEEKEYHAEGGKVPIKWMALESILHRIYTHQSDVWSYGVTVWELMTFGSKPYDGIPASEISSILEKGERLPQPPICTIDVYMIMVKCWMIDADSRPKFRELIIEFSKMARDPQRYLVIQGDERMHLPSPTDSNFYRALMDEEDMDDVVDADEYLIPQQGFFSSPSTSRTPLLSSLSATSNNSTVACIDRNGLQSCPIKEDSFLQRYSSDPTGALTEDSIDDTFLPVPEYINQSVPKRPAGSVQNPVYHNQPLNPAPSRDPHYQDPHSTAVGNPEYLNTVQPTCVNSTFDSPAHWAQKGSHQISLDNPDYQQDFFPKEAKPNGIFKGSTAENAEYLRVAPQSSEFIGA
Assay: EGFR C797S enzyme inhibition activity (ADP-Glo kinase assay)
Type: biochemical
Conditions: purified enzyme 3 ng, ATP 5 μM, 25° C., 1 hour, luminescence; read-out: EGFR DTC Enzyme IC50
Description: <Experimental Example 1> Evaluation of EGFR C797S Enzyme Inhibition Activity
The compounds according to the present invention were reacted together with purified human EGFR (d746-750/T790M/C797S) (668-end, SignalChem) enzyme and a specific substrate and evaluated for enzyme inhibitory activity as described below. The reaction buffer consisted of 40 mM Tris-HCl pH 7.4, 20 mM MgCl2, 0.5 mg/ml BSA, and 50 μM DTT, and all reactions of the test substances were performed in reaction buffers. The compounds were serially diluted in 12 steps from a 10 mM DMSO stock, and the enzyme activity was measured at the final compound concentrations of 10, 3, 1, 0.3, 0.1, 0.03, 0.01, 0.003, 0.001, 0.0003, 0.0001, and 0 μM. In the assay, human EGFR (d746-750/T790M/C797S) (3 ng) enzyme was reacted with purified ATP (5 μM) and enzyme substrate (0.2 μg) at 25° C. for 1 hour, and the enzyme activity was determined using the in vitro ADP-Glo™ kinase assay (Promega). The enzyme activity inhibition was measured via luminescence by reacting the enzyme activity reaction solution, ADP-Glo reaction solution, and enzyme activity detection solution in a 2:2:1 ratio. Based on the luminescence of the enzyme activity of the solvent control group that was not treated with the compound, the degree of the enzyme activity inhibition depending on the treatment concentration of each compound was calculated, wherein the concentration of each compound that inhibited the enzyme activity by 50% was determined as the IC50 (nM) value, which was obtained using GraphPad Prism 8.4.3 (GraphPad software Inc., San Diego).

Row | IC50 | SMILES
5 | < 50 nM | CO[C@H]1CCN(c2nccc(Nc3cc(NC(C)C)c(C(=O)N4CC(CS(C)(=O)=O)C4)cn3)n2)C[C@H]1F (relative stereo) [Example 2, (6-((2-(cis-3-fluoro-4-methoxypiperidin-1-yl)pyrimidin-4-yl)amino)-4-(isopropylamino)pyri-din-3-yl)(3-((methylsulfonyl)meth-yl)azetidin-1-yl)methanone]
6 | < 50 nM | CO[C@H]1CCN(c2nccc(Nc3cc(NC4CCOC4)c(C(=O)N4CC(CS(C)(=O)=O)C4)cn3)n2)C[C@H]1F (relative stereo) [Example 14, (6-((2-(cis-3-fluoro-4-methoxypiperidin-1-yl)pyrimidin-4-yl)amino)-4-((tetrahydrofuran-3-yl)amino)pyridin-3-yl)(3-((methylsulfonyl)meth-yl)azetidin-1-yl)methanone]
7 | 50 to 500 nM | CC(C)Nc1cc(Nc2ccnc(N3CCN(C)CC3)n2)ncc1C(=O)N1CC(CS(C)(=O)=O)C1 [Example 11, (4-(isopyropylamino)-4-((2-(4-methylpiperazin-1-yl)pyrimidin-4-yl)amino)pyridin-3-yl)(3-((methylsulfonyl)meth-yl)azetidin-1-yl)methanone]
8 | 50 to 500 nM | Cn1cc(Nc2cc(Nc3ccnc(-c4cnn(S(=O)(=O)C5CC5)c4)n3)ncc2C(=O)N2CC(CS(C)(=O)=O)C2)cn1 [Example 22, (6-((2-(1-(cyclopropylsulfonyl)-1H-pyrazol-4-yl)pyrimidin-4-yl)amino)-4-((1-methyl-1H-pyrazol-4-yl)amino)pyridin-3-yl)(3-((methylsulfonyl)meth-yl)azetidin-1-yl)methanone]
9 | 50 to 500 nM | CC(C)Nc1cc(Nc2ccnc(-c3cnn(S(=O)(=O)C4CC4)c3)n2)ncc1C(=O)N(C)CCN(C)C [Example 26, 6-((2-(1-(cyclopropylsulfonyl)-1H-pyrazol-4-yl)pyrimidin-4-yl)amino)-N-(2-(dimethylamino)ethyl)-4-(isopropylamino)-N-methylnicotinamide]
10 | 50 to 500 nM | CC(C)Nc1cc(Nc2ccnc(-c3cnn(S(=O)(=O)C4CC4)c3)n2)ncc1C(=O)N(C)CC#N [Example 28, N-(cyanomethyl)-6-((2-(1-(cyclopropylsulfonyl)-1H-pyrazol-4-yl)pyrimidin-4-yl)amino)-4-(isopropylamino)-N-methylnicotinamide]
11 | < 50 nM | CC(C)Nc1cc(Nc2ccnc(-c3cnn(S(=O)(=O)C4CC4)c3)n2)ncc1C(=O)N1CC(N(C)C)C1 [Example 37, (6-((2-(1-(cyclopropylsulfonyl)-1H-pyrazol-4-yl)pyrimidin-4-yl)amino)-4-(isopropylamino)pyri-din-3-yl)(3-(dimethylamino)azeti-din-1-yl)methanone]
12 | < 50 nM | CC(C)Nc1cc(Nc2ccnc(-c3cnn(CC4CC4)c3)n2)ncc1C(=O)N1CC(CS(C)(=O)=O)C1 [Example 43, (6-((2-(1-(cyclopropylmethyl)-1H-pyrazol-4-yl)pyrimidin-4-yl)amino)-4-(isopropylamino)pyri-din-3-yl)(3-((methylsulfonyl)meth-yl)azetidin-1-yl)methanone]
13 | 50 to 500 nM | CC(C)Nc1cc(Nc2ccnc(N3CCN(S(C)(=O)=O)CC3)n2)ncc1C(=O)N1CC(CS(C)(=O)=O)C1 [Example 44, (4-(isopropylamino)-6-((2-(4-(methylsulfonyl)piper-azin-1-yl)pyrimidin-4-yl)amino)pyridin-3-yl)(3-((methylsulfonyl)meth-yl)azetidin-1-yl)methanone]
14 | 50 to 500 nM | CC(C)Nc1cc(Nc2ccnc(N3CCNC(=O)C3)n2)ncc1C(=O)N1CC(CS(C)(=O)=O)C1 [Example 45, 4-(4-((4-(isopropylamino)-5-(3-((methylsulfonyl)meth-yl)azetidine-1-carbonyl)pyridin-2-yl)amino)pyrimidin-2-yl)piperazin-2-one]
15 | < 50 nM | CC(C)Nc1cc(Nc2ccnc(-c3cnn(S(=O)(=O)C4CC4)c3)n2)ncc1C(=O)NCCc1ccccc1 [Example 52, 6-((2-(1-(cyclopropylsulfonyl)-1H-pyrazol-4-yl)pyrimidin-4-yl)amino)-4-(isopropylamino)-N-phenethylnicotinamide]
16 | 50 to 500 nM | CC(C)Nc1cc(Nc2ccnc(-c3cnn(S(=O)(=O)C4CC4)c3)n2)ncc1C(=O)NCCC(C)c1ccccc1 (stereo not shown) [Example 54, 6-((2-(1-(cyclopropylsulfonyl)-1H-pyrazol-4-yl)pyrimidin-4-yl)amino)-4-(isopropylamino)-N-(3-phenylbutyl)nicotina-mide]
17 | < 50 nM | CNCCCNC(=O)c1cnc(Nc2ccnc(-c3cn[nH]c3)n2)cc1NC(C)C [Example 59, 6-((2-(1H-pyrazol-4-yl)pyrimidin-4-yl)amino)-4-(isopropylamino)-N-(3-(methylamino)propyl) nicotinamide]
18 | < 50 nM | CNCCCNC(=O)c1cnc(Nc2ccnc(-c3cnn(S(=O)(=O)C4CC4)c3)n2)cc1NC(C)C [Example 60, 6-((2-(1-(cyclopropylsulfonyl)-1H-pyrazol-4-yl)pyrimidin-4-yl)amino)-4-(isopropoylamino)-N-(3-(methylamino)propyl) nicotinamide]
19 | < 50 nM | CC(C)Nc1cc(Nc2ccnc(-c3cn[nH]c3)n2)ncc1C(=O)NC1CCNC1 (stereo not shown) [Example 67, 6-((2-(1H-pyrazol-4-yl)pyrimidin-4-yl)amino)-4-(isopropylamino)-N-(pyrrolidin-3-yl)nicotinamide]
20 | < 50 nM | CC(C)Nc1cc(Nc2ccnc(-c3cnn(S(=O)(=O)C4CC4)c3)n2)ncc1C(=O)NC1CCN(S(C)(=O)=O)CC1 [Example 69, 6-((2-(1-(cyclopropylsulfonyl)-1H-pyrazol-4-yl)pyrimidin-4-yl)amino)-4-(isopropylamino)-N-(1-(methylsulfonyl)piper-idin-4-yl)nicotinamide]
21 | < 50 nM | CC(C)Nc1cc(Nc2ccnc(-c3cnn(S(=O)(=O)C4CC4)c3)n2)ncc1C(=O)Nc1cc(N2CCC(N3CCN(C)CC3)CC2)cc(S(C)(=O)=O)c1 [Example 75, 6-((2-(1-(cyclopropylsulfonyl)-1H-pyrazol-4-yl)pyrimidin-4-yl)amino)-4-(isopropylamino)-N-(3-(4-(4-methylpiperazin-1-yl)piperidin-1-yl)-5-(methyl-sulfonyl)phenyl) nicotinamide]
22 | < 50 nM | CC(C)Nc1cc(Nc2ccnc(-c3cnn(S(=O)(=O)C4CC4)c3)n2)ncc1C(=O)NC[C@H]1CCCN1 [Example 77, (R)-6-((2-(1-(cyclopropylsulfonyl)-1H-pyrazol-4-yl)pyrimidin-4-yl)amino)-4-(isopropylamino)-N-(pyrrolidin-2-ylmethyl)nicotinamide]
